Measured values published in patent US7531557B2, “Diaryl ethers as opioid receptor antagonists” (Eli Lilly and Company, priority 2002, dated 2009).
Where a name gives a salt, the structure may show the parent alone.

What was measured:
[1] = target: mu opioid receptor (MOR) (Homo sapiens, UniProt P35372); assay: SPA-based GTP-γ-S binding assay, antagonist mode, mu; format: biochemical; settings: antagonist assay against DAMGO 1 micromolar; Kb by Cheng-Prusoff equation; read-out: In Vitro Antagonism GTP-γ-S Kb Mu
Sequence of mu opioid receptor (MOR) (P35372 whole entry): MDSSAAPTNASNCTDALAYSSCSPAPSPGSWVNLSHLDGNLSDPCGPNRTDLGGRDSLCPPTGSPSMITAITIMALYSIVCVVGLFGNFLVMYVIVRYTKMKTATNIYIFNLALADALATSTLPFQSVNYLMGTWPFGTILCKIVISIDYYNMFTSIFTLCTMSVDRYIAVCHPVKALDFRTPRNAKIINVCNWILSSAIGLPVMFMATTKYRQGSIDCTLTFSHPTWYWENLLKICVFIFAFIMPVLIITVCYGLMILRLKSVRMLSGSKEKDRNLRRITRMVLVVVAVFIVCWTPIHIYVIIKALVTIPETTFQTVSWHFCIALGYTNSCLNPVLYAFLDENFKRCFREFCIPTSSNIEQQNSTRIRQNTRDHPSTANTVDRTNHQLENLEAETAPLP
Description: (§1) An SPA—based GTP-γ-S assay format was developed based on previous opioid (Emmerson et al., J. Pharm Exp Ther 278, 1121, 1996; Horng et al., Society for Neuroscience Abstracts, 434.6, 2000) and muscarinic (DeLapp et al., JPET 289, 946, 1999) assay formats. Membranes were re-suspended in 20 mM HEPES, 100 mM NaCl, 5 mM MgCl2, 1 mM DTT, and 1 mM EDTA. Fifty (50) […] of GTP-γ-[35S], compound, membrane suspension (20 microgram/well), and wheat germ agglutinin coated SPA beads (1 mg/well) were added to clear bottom 96 well assay plates. GDP ([…]) was added to the membrane solution prior to addition to the assay plates. Plates were sealed and incubated for four hours at room temperature then placed in a refrigerator overnight to allow the beads to settle. Signal stability at 4° C. was determined to be >60 hours. Plates were warmed to room temperature and counted in a Wallac Microbeta scintillation counter. For antagonist assays, specific agonists were added at the following concentrations: (MOR) DAMGO 1 micromolar, (DOR) DPDPE 30 nM, (KOR) U69593 300 nM. Kb's were determined by Cheng-Prusoff equation (see Cheng and Prusoff, Biochem. Pharmacol. 22, 3099, 1973).

[2] = target: kappa opioid receptor (KOR) (Homo sapiens, UniProt P41145); assay: SPA-based GTP-γ-S binding assay, antagonist mode, kappa; format: biochemical; settings: antagonist assay against U69593 300 nM; Kb by Cheng-Prusoff equation; read-out: In Vitro Antagonism GTP-γ-S Kb Kappa
Sequence of kappa opioid receptor (KOR) (P41145 whole entry): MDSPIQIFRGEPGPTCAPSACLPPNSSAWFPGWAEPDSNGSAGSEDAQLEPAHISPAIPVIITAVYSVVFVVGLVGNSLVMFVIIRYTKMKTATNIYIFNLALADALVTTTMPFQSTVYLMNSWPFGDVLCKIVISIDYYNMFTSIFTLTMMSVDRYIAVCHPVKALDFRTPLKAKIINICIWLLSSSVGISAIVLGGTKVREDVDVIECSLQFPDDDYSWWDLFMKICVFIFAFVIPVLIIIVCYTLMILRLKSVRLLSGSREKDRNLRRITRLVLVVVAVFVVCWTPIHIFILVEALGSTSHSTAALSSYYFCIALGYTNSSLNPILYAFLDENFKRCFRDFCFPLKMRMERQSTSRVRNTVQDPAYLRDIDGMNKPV
Description: as §1

[3] = target: delta opioid receptor (DOR) (Homo sapiens, UniProt P41143); assay: SPA-based GTP-γ-S binding assay, antagonist mode, delta; format: biochemical; settings: antagonist assay against DPDPE 30 nM; Kb by Cheng-Prusoff equation; read-out: In Vitro Antagonism GTP-γ-S Kb Delta
Sequence of delta opioid receptor (DOR) (P41143 whole entry): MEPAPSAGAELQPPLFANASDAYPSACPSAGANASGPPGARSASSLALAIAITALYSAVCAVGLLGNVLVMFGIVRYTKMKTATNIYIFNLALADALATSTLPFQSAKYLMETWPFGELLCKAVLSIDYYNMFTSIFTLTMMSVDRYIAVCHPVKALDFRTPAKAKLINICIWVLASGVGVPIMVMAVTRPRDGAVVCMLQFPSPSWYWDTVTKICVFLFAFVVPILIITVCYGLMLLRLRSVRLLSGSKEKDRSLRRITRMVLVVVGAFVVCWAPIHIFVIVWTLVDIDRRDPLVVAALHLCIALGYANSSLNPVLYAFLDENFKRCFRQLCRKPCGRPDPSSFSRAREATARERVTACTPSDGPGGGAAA
Description: as §1

[4] = test system: mu, delta and kappa receptors in rat striatum/nucleus accumbens; assay: Ex-vivo receptor binding of 3H-diprenorphine in rat brain after oral dosing; settings: 7 mg/kg p.o., 6 hours after administration, striatum/nucleus accumbens homogenate, versus vehicle
[5] = test system: Diet Induced Obese Rat; assay: Indirect calorimetry assay (food consumption, energy balance); format: in vivo; settings: for minimal effective dose: Rattus norvegicus, po, lowest dose with food consumption over 24 hours significantly different from vehicle, read-out: Inhibition of Feeding Diet Induced Obese Rat Minimum Effective Dose (MED); for Energy Balance Diet Induced Obese Rat: test dose 3 mg/kg, p.o., energy balance = caloric intake minus utilization
Description: Indirect Calorimetry Assay
Twenty-four-hour energy expenditure (EE) and respiratory quotient (RQ) were measured by indirect calorimetry using an open circuit calorimetry system (Oxymax, Columbus Instruments Int. Corp., USA). RQ is the ratio of the volume of CO2 produced (VCO2) to the volume of O2 consumed (VO2). EE was calculated as the product of calorific value of oxygen (CV) and VO2 per kilogram of body weight, where CV=3.815+1.232 (RQ). Total calories expended were calculated to determine daily fuel utilization. To calculate the proportion of protein, fat and carbohydrate that is used during that 24-hour period, we used Flatt's proposal (see, Flatt J P 1991 Assessment of daily and cumulative carbohydrate and fat balances in mice. J Nutr Biochem 2:193-202.) and formulae as well as other derived constants (see Elia M, Livesey G 1992 Energy expenditure and fuel selection in biological systems: the theory and practice of calculations based on indirect calorimetry and tracer methods. World Rev Nutr Diet 70:68-131.). Food consumption over the 24-hour period was also measured. […] Results obtained for a sample of compounds of the invention with the indirect calorimetry assay are shown below in Table 4.

For `NC(=O)c1ccc(Oc2ccc(CCNCc3cccc(Cl)c3)cc2Cl)nc1` [Example 479, 6-{2-Chloro-4-[2-(3-chloro-benzylamino)-ethyl]-phenoxy}-nicotinamide], the Kb [1] was 0.503 nM, the Kb [2] was 6.86 nM and the Kb [3] was 30.1 nM.
With `CCCCCNCc1ccc(Oc2ccc(C(N)=O)nc2)c(F)c1` [Example 405, 5-(2-Fluoro-4-pentylaminomethylphenoxy)pyridine-2-carboxamide] the “Ex Vivo Binding [3H]-Diprenorphine % Inhibition of at 6 hours 7 mg/kg of test compound” value [4] was 55%.
In the case of `CC(C)(C)CCNCc1ccc(Oc2ccc(C(N)=O)cn2)cc1` [Example 263, 6-{4-[(3,3-Dimethyl-butylamino)-methyl]-phenoxy}-nicotinamide], the minimal effective dose [5] is reported as no more than 3 mg/kg, the “Energy Balance Diet Induced Obese Rat” value [5] is reported as -56 kcal/kg/day and the “Ex Vivo Binding [3H]-Diprenorphine % Inhibition of at 6 hours 7 mg/kg of test compound” value [4] is reported as 62%.
With `NC(=O)c1ccc(Oc2ccc(CNCCC3CCCC3)cc2)nc1` [Example 309, 6-{4-[(2-Cyclopentyl-ethylamino)-methyl]-phenoxy}-nicotinamide] the minimal effective dose [5] was no more than 3 mg/kg, the “Energy Balance Diet Induced Obese Rat” value [5] was -39 kcal/kg/day and the “Ex Vivo Binding [3H]-Diprenorphine % Inhibition of at 6 hours 7 mg/kg of test compound” value [4] was greater than 60%.
`NC(=O)c1ccc(Oc2ccc(CCNCc3cccc(F)c3)cc2Cl)nc1` [Example 478, 6-{2-Chloro-4-[2-(3-fluoro-benzylamino)-ethyl]-phenoxy}-nicotinamide] gave a Kb [1] of 0.41 nM, a Kb [2] of 4.5 nM and a Kb [3] of 5.78 nM.
With `NC(=O)c1ccc(Oc2ccc(CNCC3CC3)cc2F)nc1` [Example 673, 6-[4-(Cyclopropylmethylaminomethyl)-2-fluorophenoxy]nicotinonamide] the melting point was 128 to 129 °C.
In the case of `CC(C)(C)CCNCc1ccc(Oc2ccc(C(N)=O)cn2)c(Cl)c1` [Example 481, 6-{2-Chloro-4-[(3,3-dimethylbutylamino)-methyl]-phenoxy}-nicotinamide], the “Ex Vivo Binding [3H]-Diprenorphine % Inhibition of at 6 hours 7 mg/kg of test compound” value [4] is reported as 83%.
With `Cc1cc(CNCCC(C)(C)C)ccc1Oc1ccc(C(N)=O)cn1` [Example 238, 6-{4-[(3,3-Dimethyl-butylamino)-methyl]-2-methyl-phenoxy}-nicotinamide] the “Ex Vivo Binding [3H]-Diprenorphine % Inhibition of at 6 hours 7 mg/kg of test compound” value [4] was 59%.
For `CC(C)CCNCc1ccc(Oc2ccc(C(N)=O)cn2)cc1` [Example 271, 6-{4-[(3-Methyl-butylamino)-methyl]-phenoxy}-nicotinamide], the minimal effective dose [5] was 0.3 mg/kg, the “Energy Balance Diet Induced Obese Rat” value [5] was -35 kcal/kg/day and the Kb [1] was 0.2 nM. The Kb [2] was 0.4 nM, the Kb [3] was 4.4 nM and the “Ex Vivo Binding [3H]-Diprenorphine % Inhibition of at 6 hours 7 mg/kg of test compound” value [4] was greater than 40%.
In the case of `NC(=O)c1ccc(Oc2ccc(CNCCc3cccs3)cc2)nc1` [Example 253, 6-{4-[(2-Thiophen-2-yl-ethylamino)-methyl]-phenoxy}-nicotinamide], the minimal effective dose [5] is reported as no more than 3 mg/kg, the “Energy Balance Diet Induced Obese Rat” value [5] is reported as -19 kcal/kg/day and the Kb [1] is reported as 0.068 nM. The Kb [2] was 0.355 nM, the Kb [3] was 0.708 nM and the “Ex Vivo Binding [3H]-Diprenorphine % Inhibition of at 6 hours 7 mg/kg of test compound” value [4] was greater than 40%.
For `COc1cc(CNCCc2ccccc2F)ccc1Oc1ccc(C(N)=O)cn1` [Example 431, 6-(4-{[2-(2-fluorophenyl)ethylamino]methyl}-2-methoxyphenoxy)nicotinamide], the “Ex Vivo Binding [3H]-Diprenorphine % Inhibition of at 6 hours 7 mg/kg of test compound” value [4] was 54%.
In the case of `CCCCCNCc1ccc(Oc2ccc(C(N)=O)cn2)c(OC)c1` [Example 420, 6-(2-Methoxy-4-pentylaminomethylphenoxy)nicotinamide], the “Ex Vivo Binding [3H]-Diprenorphine % Inhibition of at 6 hours 7 mg/kg of test compound” value [4] is reported as 75%.
In the case of `COc1cc(CNCCC(C)(C)C)ccc1Oc1ccc(C(N)=O)cn1.CS(=O)(=O)O` [Example 446, 6-{4-[(3,3-Dimethylbutylamino)methyl]-2-methoxyphenoxy}nicotinamide methanesulfonate], the “Ex Vivo Binding [3H]-Diprenorphine % Inhibition of at 6 hours 7 mg/kg of test compound” value [4] is reported as 55%.
For `NC(=O)c1ccc(Oc2ccc(CNCCC3CCCCC3)cc2)nc1` [Example 272, 6-{4-[(2-Cyclohexyl-ethylamino)-methyl]-phenoxy}-nicotinamide], the “Ex Vivo Binding [3H]-Diprenorphine % Inhibition of at 6 hours 7 mg/kg of test compound” value [4] was 79%.
Work on `NC(=O)c1ccc(Oc2ccc(CCNCc3ccccc3)cc2Cl)nc1` [Example 475, 6-[4-(2-Benzylamino-ethyl)-2-chloro-phenoxy]-nicotinamide] yielded a Kb [1] of 0.843 nM, a Kb [2] of 7.86 nM and a Kb [3] of 17.5 nM.
Work on `NC(=O)c1ccc(Oc2ccc(CNCC3CCCCC3)cc2F)nc1` yielded a melting point of 152 to 153 °C.
In the case of `CC(C)CCNCc1ccc(Oc2ccc(C(N)=O)cn2)c(F)c1` [Example 228, 6-[2-Fluoro-4-(3-methyl-butylamino-methyl)-phenoxy]nicotinamide], the minimal effective dose [5] is reported as 0.3 mg/kg, the “Energy Balance Diet Induced Obese Rat” value [5] is reported as -81 kcal/kg/day and the “Ex Vivo Binding [3H]-Diprenorphine % Inhibition of at 6 hours 7 mg/kg of test compound” value [4] is reported as greater than 65%.
In the case of `Cc1ccccc1CNCCc1ccc(Oc2ccc(C(N)=O)cn2)c(Cl)c1` [Example 476, 6-{2-Chloro-4-[2-(2-methyl-benzylamino)-ethyl]-phenoxy}-nicotinamide], the Kb [1] is reported as 0.281 nM, the Kb [2] is reported as 3.38 nM and the Kb [3] is reported as 8.9 nM.
With `Cc1cc(CNCCC(C)C)ccc1Oc1ccc(C(N)=O)cn1` [Example 227, 6-[2-Methyl-4-(3-methyl-butylamino-methyl)-phenoxy]nicotinamide] the minimal effective dose [5] was 0.3 mg/kg, the “Energy Balance Diet Induced Obese Rat” value [5] was -68 kcal/kg/day and the “Ex Vivo Binding [3H]-Diprenorphine % Inhibition of at 6 hours 7 mg/kg of test compound” value [4] was 55%.
In the case of `CCCCNCc1ccc(Oc2ccc(C(N)=O)cn2)c(C)c1` [Example 240, 6-(4-Butylaminomethyl-2-methyl-phenoxy)-nicotinamide], the “Ex Vivo Binding [3H]-Diprenorphine % Inhibition of at 6 hours 7 mg/kg of test compound” value [4] is reported as 38%.
With `NC(=O)c1ccc(Oc2ccc(CNCCc3cccc(F)c3)cc2)nc1` [Example 256, 6-(4-{[2-(3-Fluoro-phenyl)-ethylamino]-methyl}-phenoxy)-nicotinamide] the Kb [1] was 0.072 nM, the Kb [2] was 0.894 nM and the Kb [3] was 0.677 nM. For the same compound, the “Ex Vivo Binding [3H]-Diprenorphine % Inhibition of at 6 hours 7 mg/kg of test compound” value [4] was 40%.
In the case of `NC(=O)c1ccc(Oc2ccc3c(c2)CCCN(CCc2ccccc2)C3)nc1` [Example 447, 6-(2-Phenethyl-2,3,4,5-tetrahydro-1H-benzo[c]azepin-7-yloxy)nicotinamide], the “Ex Vivo Binding [3H]-Diprenorphine % Inhibition of at 6 hours 7 mg/kg of test compound” value [4] is reported as 62%.
In the case of `NC(=O)c1ccc(Oc2ccc(CNCCc3ccc(F)cc3)cc2)cc1` [Example 294, 4-(4-{[2-(4-Fluoro-phenyl)-ethylamino]-methyl}-phenoxy)-benzamide], the “Ex Vivo Binding [3H]-Diprenorphine % Inhibition of at 6 hours 7 mg/kg of test compound” value [4] is reported as 50%.
In the case of `Cc1cc(CNCCC(C)C)ccc1Oc1ccc(C(N)=O)cc1F` [Example 246, 3-Fluoro-4-{2-methyl-4-[(3-methyl-butylamino)-methyl]-phenoxy}-benzamide], the “Ex Vivo Binding [3H]-Diprenorphine % Inhibition of at 6 hours 7 mg/kg of test compound” value [4] is reported as 58%.
Work on `CC(C)CCN(Cc1ccc(Oc2ccc(C(N)=O)cn2)c(F)c1)CC1CCCCC1` [Example 671, 6-[4-((3-Methyl-butyl), cyclohexylmethylaminomethyl)-2-fluorophenoxy]nicotinonamide] yielded a melting point of 110 to 111 °C.
In the case of `O=C1CC[C@@]2(O)[C@H]3Cc4ccc(O)c5c4[C@@]2(CCN3CC2CC2)[C@H]1O5` [Naltrexone ®, Naltrexone HCl, reference compound], the minimal effective dose [5] is reported as greater than 10 mg/kg, the “Energy Balance Diet Induced Obese Rat” value [5] is reported as “Not significant” and the “Ex Vivo Binding [3H]-Diprenorphine % Inhibition of at 6 hours 7 mg/kg of test compound” value [4] is reported as less than 40%.
For `CC(C)CCNCc1ccc(Oc2ccc(C(N)=O)cn2)c(Cl)c1` [Example 229, 6-[2-Chloro-4-(3-methyl-butylamino-methyl)-phenoxy]nicotinamide], the “Ex Vivo Binding [3H]-Diprenorphine % Inhibition of at 6 hours 7 mg/kg of test compound” value [4] was 77%.
